# From patent US9045482B2, “Pyrido[4,3-B]indoles and methods of use” (Medivation Technologies, Inc., priority 2009, dated 2015)
# Target: T1, rat adrenergic α1B receptor (Rattus norvegicus, UniProt P15823)
# T1 construct: rat adrenergic α1B receptor obtained from Wistar Rat liver; from tissue; host or cells: Wistar Rat liver
# T1 sequence (P15823 1-515): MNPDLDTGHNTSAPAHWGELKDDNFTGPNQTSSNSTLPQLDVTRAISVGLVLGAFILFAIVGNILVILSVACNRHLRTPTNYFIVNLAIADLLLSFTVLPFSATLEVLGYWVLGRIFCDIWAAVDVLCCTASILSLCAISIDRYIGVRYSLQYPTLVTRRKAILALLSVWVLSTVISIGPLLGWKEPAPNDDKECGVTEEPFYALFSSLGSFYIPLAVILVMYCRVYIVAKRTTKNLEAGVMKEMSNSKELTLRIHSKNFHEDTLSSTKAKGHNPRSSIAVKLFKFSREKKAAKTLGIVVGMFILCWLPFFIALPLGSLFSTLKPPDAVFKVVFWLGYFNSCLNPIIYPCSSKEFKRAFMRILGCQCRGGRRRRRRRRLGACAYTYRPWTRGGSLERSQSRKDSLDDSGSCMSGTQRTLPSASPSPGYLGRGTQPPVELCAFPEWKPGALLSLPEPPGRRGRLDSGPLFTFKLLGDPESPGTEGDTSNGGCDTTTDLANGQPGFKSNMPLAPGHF
# Assay: Adrenergic α1B radioligand binding ([3H]Prozosin)
# Set-up: species or system Wistar Rat
# Conditions: 0.1 μM ligand conc.
# Experimental: To evaluate in radioligand binding assays the activity of compounds of the invention, rat adrenergic α1B receptor obtained from Wistar Rat liver [Garcia-S'ainz, J. A. et al., Biochem. Biophys. Res. Commun. (1992), 186:760; Michel, A. D. et al., Br. J. Pharmacol. (1989), 98:883] in a modified Tris-HCl buffer (50 mM Tris-HCl buffer, pH 7.4, 0.5 mM EDTA) was used. Compounds of the invention were incubated with 0.25 nM [^3H]Prozosin for 60 min at 25° C. Non-specific binding was estimated in the presence of 10 μM phentolamine. Receptor proteins were filtered and washed, the filters were then counted to determine [^3H]Prozosin specifically bound. Compounds were screened at 1 μM or lower, using 1% DMSO as vehicle. Compounds of the invention were tested in this biochemical assay. Biochemical assay results for representative compounds were presented as the percent inhibition of specific binding in Table 3.
row,Compound,Percent Inhibition of ligand binding Adrenergic α1B
1,"O=C(Cn1c2c(c3cccnc31)CN1CCCC1C2)N1CCCCC1 (centres unmarked) [Compound 37, 1-(piperidin-1-yl)-2-(8,9,9a,10-tetrahydro-5H-pyrido[3′,2′:4,5]pyrrolo[3,2-f]indolizin-11(7H)-yl)ethanone]",9%
2,"O=C(Cn1c2c(c3cccnc31)C1CCCN1CC2)N1CCCCC1 (centres unmarked) [Compound 38, 1-(piperidin-1-yl)-2-(2,3,5,6-tetrahydro-1H-pyrido[3′,2′:4,5]pyrrolo[2,3-g]indolizin-7(11cH)-yl)ethanone]",8%
